# Reference: article PMC7127791 (Bioorganic & Medicinal Chemistry Letters, 2016)
# “Also recorded” adds a separate entry of the source.
# How the values were obtained:
# [1] = tested on: broad and diverse panel of DNA and RNA viruses; format: cell-based
# [2] = tested on: Vero cells; assay: Cytotoxicity; conditions: minimal cytotoxic concentration by microscopical inspection
# [3] = tested on: Reovirus-1; assay: organism not typed; format: cell-based; conditions: Vero, read-out: Antiviral EC50 Reovirus-1
# [4] = tested on: Para-influenza-3 virus; assay: organism not typed; format: cell-based, Parainfluenza-3 virus; conditions: Vero, read-out: Antiviral EC50 Para-influenza-3 virus
# [5] = tested on: MDCK cells; assay: Cytotoxicity; conditions: Madin-Darby canine kidney cells; microscopy
# [6] = tested on: HeLa cells; assay: Cytotoxicity; conditions: HeLa cervix carcinoma cells; microscopy
# [7] = tested on: HEL cells; assay: Cytotoxicity; conditions: human embryonic lung fibroblast cells; microscopy
# [8] = tested on: varicella zoster virus; conditions: human
# [9] = tested on: Punta Toro virus; format: cell-based
# [10] = tested on: other cell lines tested; assay: Cytotoxicity in the other mammalian cell lines tested; conditions: 100 μM compound concentration; cell lines other than Vero, HEL and MT4
# [11] = tested on: Rift Valley fever virus (MP-12 strain); format: cell-based
# [12] = tested on: Punta Toro virus; format: cell-based; remark: listed apart in the source
Compound,Cytotoxicity MCC [2] [µM],EC50 [3] [µM],EC50 [4] [µM],Cytotoxicity MCC MDCK [5] [µM],Cytotoxicity MCC HeLa [6],Cytotoxicity MCC HEL [7] [µM],other results
"CCOC(=O)C1=C(C)NC(=O)NC1c1ccccc1Cl (centres unmarked) [Compound 4b, Ethyl 4-(2-chlorophenyl)-6-methyl-2-oxo-1,2,3,4-tetrahydropyrimidine-5-carboxylate]",>100,> 100,> 100,>100,>100 µM,>100,antiviral activity against the virus panel (in words) [1]: no antiviral activity
"CCOC(=O)C1=C(C)NC(=O)NC1c1ccc(O)cc1 (centres unmarked) [Compound 4e, Ethyl 4-(4-hydroxyphenyl)-6-methyl-2-oxo-1,2,3,4-tetrahydropyrimidine-5-carboxylate]",>100,> 100,> 100,>100,>100 µM,>100,
"CCOC(=O)C1=C(C)NC(=O)NC1c1ccc(N(C)C)cc1 (centres unmarked) [Compound 4g, Ethyl 4-[4-(dimethylamino)phenyl]-6-methyl-2-oxo-1,2,3,4-tetrahydropyrimidine-5-carboxylate]",100,,,>100,>100 µM,>100,
"CCOC(=O)C1=C(C)NC(=O)NC1/C=C/c1ccccc1 (centres unmarked) [Compound 4h, Ethyl 6-methyl-2-oxo-4-[(E)-2-phenylethenyl]-1,2,3,4-tetrahydropyrimidine-5-carboxylate]",100,> 100,> 100,>100,⩾100 μM,>100,MCC reported with the varicella zoster virus EC50 [8]: 100 µM
"CCOC(=O)C1=C(C)NC(=O)NC1c1cccs1 (centres unmarked) [Compound 4i, Ethyl 6-methyl-2-oxo-4-(thiophen-2-yl)-1,2,3,4-tetrahydropyrimidine-5-carboxylate]",,,,>100,>100 µM,,
"CCOC(=O)C1=C(C)NC(=O)NC1 [Compound 4j, Ethyl 6-methyl-2-oxo-1,2,3,4-tetrahydropyrimidine-5-carboxylate]",,,,>100,>100 µM,,
"CCOC(=O)C1=C(C)NC(=O)NC1C (centres unmarked) [Compound 4k, Ethyl 4,6-dimethyl-2-oxo-1,2,3,4-tetrahydropyrimidine-5-carboxylate]",,,,>100,>100 µM,,
"CCOC(=O)C1=C(C)NC(=O)NC1CC(C)C (centres unmarked) [Compound 4l, Ethyl 6-methyl-4-(2-methylpropyl)-2-oxo-1,2,3,4-tetrahydropyrimidine-5-carboxylate]",>100,,,>100,>100 µM,>100,
"CCCCCCCCCCCC1NC(=O)NC(C)=C1C(=O)OCC (centres unmarked) [Compound 4m, Ethyl 6-methyl-2-oxo-4-undecyl-1,2,3,4-tetrahydro-5-pyrimidinecarboxylate]",,> 100,> 100,>100,>100 µM,100,antiviral activity against the virus panel (in words) [1]: did not have antiviral activity against all other viruses tested; activity against Punta Toro virus (in words) [9]: selective and potent inhibitor; also recorded: selective and potent antiviral activity; also recorded: potent and selective inhibitor; times more potent than dextran sulphate (DS-10000) [9]: approximately 7 times; times more potent than mycophenolic acid [9]: approximately 7 times; toxicity in the other cell lines tested (in words) [10]: no toxicity; activity against Rift Valley fever virus (in words) [11]: negligible; reduction in RVFV-induced CPE [11]: about 40%; 50% inhibition of RVFV at 100 μM (in words) ([11]; 100 μM): unable to achieve 50% inhibition; activity against PTV in HeLa cells (in words) [12]: inactive
"CCOC(=O)C1C2NC(=O)NC1(C)Oc1ccccc12 (centres unmarked) [Compound 5, Ethyl 9-methyl-11-oxo-8-oxa-10,12-diazatricyclo[7.3.1.0^2,7]trideca-2,4,6-triene-13-carboxylate]",>100,> 100,> 100,>100,>100 µM,>100,
"NC(=O)c1ncn([C@@H]2O[C@H](CO)[C@@H](O)[C@H]2O)n1 [Ribavirin, reference compound]",>250,> 250,,,,,
